Literature values as cited in patent US20200338051A1, “NON-CLINICAL LIQUID FORMULATIONS OF PAN-JAK INHIBITOR” (Janssen Pharmaceutica NV, priority 2019, published 2020).
Read-outs that look alike come from different tables or passages of the source.

How the values were obtained:
phosphorylation of STAT5 [1] = conditions: PBMC, IL-2 stimulus
JAK2 = JAK2 (Homo sapiens, UniProt O60674); conditions: in vitro
JAK3 = biological target: T1, JAK3 (Homo sapiens, UniProt P52333); conditions: in vitro
T1 sequence (P52333 1-1124): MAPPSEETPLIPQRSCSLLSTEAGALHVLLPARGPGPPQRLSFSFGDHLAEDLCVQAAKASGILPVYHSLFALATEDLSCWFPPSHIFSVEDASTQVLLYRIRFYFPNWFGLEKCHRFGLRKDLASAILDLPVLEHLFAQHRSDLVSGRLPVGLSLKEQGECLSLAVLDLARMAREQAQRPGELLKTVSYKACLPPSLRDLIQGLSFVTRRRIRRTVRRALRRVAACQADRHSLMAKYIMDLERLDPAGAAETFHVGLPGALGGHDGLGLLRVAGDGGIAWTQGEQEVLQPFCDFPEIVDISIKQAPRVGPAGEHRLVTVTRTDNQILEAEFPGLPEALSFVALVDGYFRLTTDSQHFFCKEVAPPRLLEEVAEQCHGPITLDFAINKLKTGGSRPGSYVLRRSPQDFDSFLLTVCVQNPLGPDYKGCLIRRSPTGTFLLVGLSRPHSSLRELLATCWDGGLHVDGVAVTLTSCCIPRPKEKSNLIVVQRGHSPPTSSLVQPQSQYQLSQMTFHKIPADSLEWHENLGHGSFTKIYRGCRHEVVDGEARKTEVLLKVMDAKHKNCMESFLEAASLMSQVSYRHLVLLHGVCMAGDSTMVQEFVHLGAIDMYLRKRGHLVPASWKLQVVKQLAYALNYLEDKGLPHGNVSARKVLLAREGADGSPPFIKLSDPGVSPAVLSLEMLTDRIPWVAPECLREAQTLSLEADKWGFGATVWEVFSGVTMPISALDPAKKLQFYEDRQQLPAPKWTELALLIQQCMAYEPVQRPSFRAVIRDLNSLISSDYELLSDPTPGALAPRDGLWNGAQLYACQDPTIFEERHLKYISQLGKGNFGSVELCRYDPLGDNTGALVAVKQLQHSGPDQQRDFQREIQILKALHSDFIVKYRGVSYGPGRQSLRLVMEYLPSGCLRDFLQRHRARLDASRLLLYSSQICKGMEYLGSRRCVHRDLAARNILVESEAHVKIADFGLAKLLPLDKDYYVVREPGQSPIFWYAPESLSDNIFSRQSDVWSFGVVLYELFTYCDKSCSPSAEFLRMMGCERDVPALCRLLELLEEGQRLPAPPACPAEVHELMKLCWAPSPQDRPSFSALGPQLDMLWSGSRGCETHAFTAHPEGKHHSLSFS

JAK1 = JAK1 (Homo sapiens, UniProt P23458); conditions: in vitro
phosphorylation of STAT4 = conditions: PBMC, INF-α stimulus
TYK2 = TYK2 (Homo sapiens, UniProt P29597); conditions: in vitro
phosphorylation of STAT5 [2] = conditions: PBMC, GM-CSF stimulus

TYK2, sequence (P29597 whole entry, species assumed): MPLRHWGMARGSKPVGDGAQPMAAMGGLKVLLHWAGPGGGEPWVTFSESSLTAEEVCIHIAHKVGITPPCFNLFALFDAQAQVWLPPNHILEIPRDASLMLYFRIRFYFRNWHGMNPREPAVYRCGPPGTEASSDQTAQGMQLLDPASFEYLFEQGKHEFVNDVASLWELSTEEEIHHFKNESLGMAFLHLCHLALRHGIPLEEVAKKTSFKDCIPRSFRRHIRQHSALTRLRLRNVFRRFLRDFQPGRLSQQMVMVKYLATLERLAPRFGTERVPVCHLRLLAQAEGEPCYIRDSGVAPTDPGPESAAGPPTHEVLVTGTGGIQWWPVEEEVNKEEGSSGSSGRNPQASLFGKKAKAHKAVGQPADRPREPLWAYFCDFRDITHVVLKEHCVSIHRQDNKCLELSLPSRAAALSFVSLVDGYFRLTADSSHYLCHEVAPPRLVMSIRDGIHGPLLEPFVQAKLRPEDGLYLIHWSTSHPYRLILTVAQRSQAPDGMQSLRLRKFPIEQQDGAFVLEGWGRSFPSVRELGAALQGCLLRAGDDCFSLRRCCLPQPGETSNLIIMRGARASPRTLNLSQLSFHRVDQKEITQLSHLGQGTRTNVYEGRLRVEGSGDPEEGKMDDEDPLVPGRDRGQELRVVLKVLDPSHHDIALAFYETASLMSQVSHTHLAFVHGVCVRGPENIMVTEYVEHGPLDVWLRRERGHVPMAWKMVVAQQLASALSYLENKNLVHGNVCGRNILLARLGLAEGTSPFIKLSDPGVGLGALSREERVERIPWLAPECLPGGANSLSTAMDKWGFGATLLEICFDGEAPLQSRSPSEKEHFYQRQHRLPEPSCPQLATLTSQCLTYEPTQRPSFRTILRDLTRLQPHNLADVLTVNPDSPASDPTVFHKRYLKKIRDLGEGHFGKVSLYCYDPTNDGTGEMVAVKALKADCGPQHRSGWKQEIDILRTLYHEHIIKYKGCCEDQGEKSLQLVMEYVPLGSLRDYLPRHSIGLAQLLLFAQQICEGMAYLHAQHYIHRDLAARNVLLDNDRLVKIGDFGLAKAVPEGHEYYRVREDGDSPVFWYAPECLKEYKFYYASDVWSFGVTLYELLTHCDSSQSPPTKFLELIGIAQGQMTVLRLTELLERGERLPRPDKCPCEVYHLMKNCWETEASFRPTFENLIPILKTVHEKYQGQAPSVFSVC
JAK2, sequence (O60674 whole entry, species assumed): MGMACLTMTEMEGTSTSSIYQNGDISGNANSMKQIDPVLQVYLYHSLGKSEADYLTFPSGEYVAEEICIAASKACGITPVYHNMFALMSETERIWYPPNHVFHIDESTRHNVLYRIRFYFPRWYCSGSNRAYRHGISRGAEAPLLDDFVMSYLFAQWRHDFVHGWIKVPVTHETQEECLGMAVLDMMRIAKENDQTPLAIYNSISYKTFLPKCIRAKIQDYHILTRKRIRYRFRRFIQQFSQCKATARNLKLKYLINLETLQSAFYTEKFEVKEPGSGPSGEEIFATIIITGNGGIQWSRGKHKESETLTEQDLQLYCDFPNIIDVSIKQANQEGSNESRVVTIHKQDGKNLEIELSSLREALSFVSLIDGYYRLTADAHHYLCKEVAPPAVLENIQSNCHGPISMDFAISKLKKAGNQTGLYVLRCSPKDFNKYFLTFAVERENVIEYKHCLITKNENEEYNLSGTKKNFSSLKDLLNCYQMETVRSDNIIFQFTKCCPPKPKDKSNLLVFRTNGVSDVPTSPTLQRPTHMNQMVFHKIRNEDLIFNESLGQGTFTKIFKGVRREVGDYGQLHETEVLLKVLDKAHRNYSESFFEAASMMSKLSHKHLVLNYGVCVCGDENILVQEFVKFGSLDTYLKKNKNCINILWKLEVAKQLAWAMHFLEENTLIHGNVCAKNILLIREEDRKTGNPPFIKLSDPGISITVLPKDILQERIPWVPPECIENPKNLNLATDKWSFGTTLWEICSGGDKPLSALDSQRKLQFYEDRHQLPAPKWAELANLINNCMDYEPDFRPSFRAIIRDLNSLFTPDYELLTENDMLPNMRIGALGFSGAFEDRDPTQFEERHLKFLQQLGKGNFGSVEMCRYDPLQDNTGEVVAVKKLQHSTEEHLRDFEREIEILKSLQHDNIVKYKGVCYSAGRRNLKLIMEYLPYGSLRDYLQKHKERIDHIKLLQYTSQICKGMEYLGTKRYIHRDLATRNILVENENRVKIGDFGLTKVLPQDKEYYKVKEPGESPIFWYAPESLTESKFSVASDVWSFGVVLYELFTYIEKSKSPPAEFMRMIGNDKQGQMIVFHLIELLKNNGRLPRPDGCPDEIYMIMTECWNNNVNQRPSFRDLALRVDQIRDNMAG
JAK1, sequence (P23458 whole entry, species assumed): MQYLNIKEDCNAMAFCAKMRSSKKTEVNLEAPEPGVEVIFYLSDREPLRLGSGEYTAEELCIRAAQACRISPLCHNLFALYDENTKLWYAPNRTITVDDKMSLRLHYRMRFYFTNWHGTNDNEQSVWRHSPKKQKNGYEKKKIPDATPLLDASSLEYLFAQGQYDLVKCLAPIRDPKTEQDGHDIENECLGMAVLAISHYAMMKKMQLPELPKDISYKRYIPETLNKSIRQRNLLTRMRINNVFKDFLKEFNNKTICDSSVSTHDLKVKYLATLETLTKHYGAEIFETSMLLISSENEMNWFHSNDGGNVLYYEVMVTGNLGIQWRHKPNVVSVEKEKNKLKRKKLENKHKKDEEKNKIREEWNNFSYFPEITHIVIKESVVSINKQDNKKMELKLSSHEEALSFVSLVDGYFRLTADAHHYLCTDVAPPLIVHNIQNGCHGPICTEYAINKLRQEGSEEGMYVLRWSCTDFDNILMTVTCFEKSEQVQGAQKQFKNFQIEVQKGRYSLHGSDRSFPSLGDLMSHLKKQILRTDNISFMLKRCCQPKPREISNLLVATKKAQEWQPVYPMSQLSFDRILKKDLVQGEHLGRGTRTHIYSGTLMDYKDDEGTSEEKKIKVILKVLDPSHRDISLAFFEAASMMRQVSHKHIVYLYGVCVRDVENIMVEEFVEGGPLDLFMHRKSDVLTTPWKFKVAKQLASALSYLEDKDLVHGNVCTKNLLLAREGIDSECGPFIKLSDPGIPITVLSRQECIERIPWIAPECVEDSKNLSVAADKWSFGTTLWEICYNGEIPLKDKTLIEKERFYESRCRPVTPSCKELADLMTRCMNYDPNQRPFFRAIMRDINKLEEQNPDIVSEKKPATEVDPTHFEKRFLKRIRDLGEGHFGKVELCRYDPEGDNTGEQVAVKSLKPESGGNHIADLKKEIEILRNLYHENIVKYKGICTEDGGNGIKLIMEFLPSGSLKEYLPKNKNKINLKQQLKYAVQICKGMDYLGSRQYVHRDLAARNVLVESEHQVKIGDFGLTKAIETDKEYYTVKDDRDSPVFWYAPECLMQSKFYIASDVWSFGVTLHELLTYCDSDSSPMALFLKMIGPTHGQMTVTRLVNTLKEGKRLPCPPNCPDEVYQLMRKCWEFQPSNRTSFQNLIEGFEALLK

Structure (SMILES): CC(C)(O)CNC(=O)Cc1nc2cnc3[nH]ccc3c2n1[C@H]1CC[C@H](CC#N)CC1 [drug substance, 2-(1-((1r,4r)-4-(cyanomethyl)cyclohexyl)-1,6-dihydroimidazo[4,5-d]pyrrolo[2,3-b]pyridin-2-yl)-N-(2-hydroxy-2-methylpropyl)acetamide]
- Systemic exposure (in vivo): low systemic exposure
- Concentrations in the colon versus plasma (intra-colonic dosing): much higher than those in the plasma
- Concentrations in the colon versus plasma (oral dosing): much higher than those in the plasma
- Inhibition of phosphorylation of STAT5 (phosphorylation of STAT5 [1]): showed cellular activity
- Enzymatic activity at JAK2 (JAK2): potent enzymatic activity
- Enzymatic activity at JAK3 (JAK3): potent enzymatic activity
- Enzymatic activity at JAK1 (JAK1): potent enzymatic activity
- Inhibition of phosphorylation of STAT4 (phosphorylation of STAT4): showed cellular activity
- Enzymatic activity at TYK2 (TYK2): potent enzymatic activity
- Inhibition of phosphorylation of STAT5 (phosphorylation of STAT5 [2]): showed cellular activity
